Source: patent publication US12084610B2, “Compositions and methods for reducing deleterious atmospheric gas emissions from flooded ecosystems” (Arkea Bio Corp., priority 2022, dated 2024)

What was measured:
[1] = 3-NOP volatility (mass loss open to air); format: physicochemical; details: 500 mg in 5 dram vial open to air, ~18-24 C, 15-30% RH, 6 days
Procedure: 3-NOP Volatility: 500 mg of 3-NOP in a 5 dram vial was left open to air at ˜18-24 C at 15-30% RH over the course of 6 days. Average mass loss is ˜0.25% per day.

[2] = 3-NOP pH and temperature stability (HPLC); format: physicochemical; details: 1-month time period, temperature 4-30 C, pH 4-10
Description: 3-NOP pH and Temperature Stability: Confirmed via HPLC over a 1-month time period at temperature between 4-30 C and pH 4-10.

Average mass loss (volatility) [1]: ~0.25 % per day | 3-NOP pH and Temperature Stability [2]: Confirmed
Compound: O=[N+]([O-])OCCCO [Formula 3-NOP, 3-nitrooxypropanol]
